Test results: patent US20250382574A1, “CELL CULTURE METHOD” (Takeda Pharmaceutical Company Limited, priority 2022, published 2025)
Where two headings read alike, the source gives them in different places.

Key:
[1] = tested on: iPS cell-derived CAR-T cells; settings: boric acid concentration range of 0.2 mM to 0.9 mM, serum-free medium; FIG. 3
Procedure: After 3 days of activation culture, the cells were collected from the T225 flask and suspended in each of the five types of expansion culture media at 50,000 cells/mL, and cultured under 5% CO2/37° C. using G-Rex (registered trademark) 24-well plate (Wilson Wolf). Then, on the fifth day of culture, some of the cells were recovered from G-Rex (registered trademark) 24-well plate and the cells were counted, and the medium was replaced with the respective medium. On the 7th day of culture, the cells were counted by a similar method, seeded in a fresh G-Rex (registered trademark) 24-well plate at 50,000 cells/mL, and cultured in each medium. On the 10th and 12th days of culture, some of the cells were similarly collected from the plate, counted, and the medium was replaced with each medium.

[2] = tested on: iPS cell-derived CAR-T cells; settings: 0.3 mM boric acid added to serum-free medium; FIG. 2
Procedure: After 3 days of activation culture, the cells were collected from the T225 flask and suspended in each of the two types of expansion culture media at 40,000 cells/mL, and cultured under 5% CO2/37° C. using G-Rex (registered trademark) 10M (Wilson Wolf). Then, on the fifth day of culture, some of the cells were collected from G-Rex (registered trademark) 10M and counted, and the medium was replaced with each medium. On the 7th and 10th days of culture, the cells were counted by a similar method, seeded in a G-Rex (registered trademark) 24-well plate at 50, 000 cells/mL, and cultured in each medium. On the 12th and 14th days of culture, some of the cells were similarly collected from the plate, counted, and the medium was replaced with each medium.

[3] = tested on: human-derived primary T cell-derived CAR-T cells; settings: boric acid 0.3 mM added to serum-free medium (BM220720); FIG. 5
[4] = tested on: iPS cell-derived CAR-T cells; assay: Proliferation test, ITS-X and taurine added to 0.3 mM boric acid-containing serum-free medium; assay type: cell-based; settings: for viability (%): serum-free expansion medium, boric acid 0.3 mM
Procedure: A total of five types of expansion culture media were prepared: Advanced DMEM/F12 medium (Thermo Fisher) containing additives shown in the “expansion culture medium” column in Table 4, and said medium further added with either 0.3 mM boric acid (Sigma-Aldrich), 0.3 mM boric acid and 1×ITS-X ((Insulin-Transferrin-Selenium-Ethanolamine Supplements) Gibco), 0.3 mM boric acid and 1×ITS-X and 1 mM taurine (Sigma-Aldrich), or 0.3 mM boric acid and 1×ITS-X and 3 mM taurine (medium supplemented with only additives in Table 4, medium supplemented with additives in Table 4+0.3 mM boric acid, medium supplemented with additives in Table 4+0.3 mM boric acid+ITS-X, medium supplemented with additives in Table 4+0.3 mM boric acid+ITS-X+1 mM taurine, medium supplemented with additives in Table 4+0.3 mM boric acid+ITS-X+3 mM taurine). After 3 days of activation culture, the cells were collected from the T225 flask and suspended in each of the five types of expansion culture media at 40,000 cells/mL, and cultured under 5% CO2/37° C. using G-Rex (registered trademark) 10M (Wilson Wolf). Then, on the fifth day of culture, some of the cells were recovered from G-Rex (registered trademark) 10M and the cells were counted, and the medium was replaced with the respective medium. On the sixth day of culture, some of the cells were recovered from G-Rex (registered trademark) 10M and the cells were counted. On the 7th and 10th days of culture, some of the cells were recovered from the plate, counted, and seeded onto a G-Rex (registered trademark) 24-well plate (Wilson Wolf) containing each medium at 50,000 cells/mL. On the 12th and 14th days of culture, some of the cells were similarly collected from the G-Rex (registered trademark) 24-well plate, counted, and the medium was replaced with each medium.
In the expansion culture of item 5 in Example 4, the cell number and viability of iPS cell-derived CAR-T cells were measured on days 3, 5, 6, 7, 10, 12, and 14 of culture.

[5] = tested on: iPS cell-derived CAR-T cells; settings: 0.3 mM boric acid added to 1% FBS-containing medium; FIG. 1
Excerpt: Then, on the fifth day of culture, some of the cells were recovered from G-Rex (registered trademark) 10M and the cells were counted, and the medium was replaced with the respective medium. On the sixth day of culture, some of the cells were recovered from G-Rex (registered trademark) 10M and the cells were counted. […] On the 12th and 14th days of culture, some of the cells were similarly collected from the G-Rex (registered trademark) 24-well plate, counted, and the medium was replaced with each medium.

Row | SMILES | cell viability [1] | proliferation (cell proliferation fold from day 0 of expansion culture) [2] | proliferation (cell proliferation fold from day 0 of expansion culture) [3] | viability (%) ([4]; Day 5) | viability (%) ([4]; Day 6) | viability (%) ([4]; Day 7) | viability (%) ([4]; Day 10) | viability (%) ([4]; Day 12) | viability (%) ([4]; Day 14) | proliferation (cell proliferation fold from day 0 of expansion culture) [5] | maximum difference (%) in viability between (3): without addition of Taurine and (4) or (5): with addition of Taurine ([4]; Day 5) | maximum difference (%) in viability between (3): without addition of Taurine and (4) or (5): with addition of Taurine ([4]; Day 6) | maximum difference (%) in viability between (3): without addition of Taurine and (4) or (5): with addition of Taurine ([4]; Day 7) | maximum difference (%) in viability between (3): without addition of Taurine and (4) or (5): with addition of Taurine ([4]; Day 10) | maximum difference (%) in viability between (3): without addition of Taurine and (4) or (5): with addition of Taurine ([4]; Day 12) | maximum difference (%) in viability between (3): without addition of Taurine and (4) or (5): with addition of Taurine ([4]; Day 14)
1 | OB(O)O [Boric acid, boric acid] | not influenced | promoted | promoted | 88.7% | 88.6% | 87.5% | 90.3% | 90.4% | 88.3% | promoted | – | – | – | – | – | –
2 | NCCS(=O)(=O)O [Taurine, taurine] | – | – | – | – | – | – | – | – | – | – | 2.9% | 1.6% | 2.5% | 3.7% | 1.9% | 1.3%
